In ChEMBL document CHEMBL1201862, “PubChem BioAssay data set” (2004):
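Protocol summary: plate cells (96-well), add compound at 5 concentrations, incubate 48 h, interpolate endpoints linearly. GI50 = concentration required for 50% inhibition of growth.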 Active and inactive are the calls of the source. No stated cut-off is given here; in the data, active = GI50 up to about 1.1 µM and inactive = higher.

What was measured:
Assay in all cases: NCI tumour cell line growth inhibition, 48 h
[1] = test system: 786-0
[2] = test system: A549
[3] = test system: ACHN
[4] = test system: BT-549
[5] = test system: CAKI-1
[6] = test system: CCRF-CEM
[7] = test system: COLO 205
[8] = test system: DU-145
[9] = test system: EKVX
[10] = test system: HCC 2998
[11] = test system: HCT-116
[12] = test system: HCT-15
[13] = test system: HL-60
[14] = test system: HOP-62
[15] = test system: HOP-92
[16] = test system: HT-29
[17] = test system: Hs-578T
[18] = test system: K562
[19] = test system: KM12
[20] = test system: LOX IMVI
[21] = test system: M14
[22] = test system: MCF7
[23] = test system: MDA-MB-231
[24] = test system: MDA-MB-435
[25] = test system: MDA-N
[26] = test system: MOLT-4
[27] = test system: Malme-3M
[28] = test system: NCI-H226
[29] = test system: NCI-H23
[30] = test system: NCI-H460
[31] = test system: NCI/ADR-RES
[32] = test system: OVCAR-3
[33] = test system: OVCAR-4
[34] = test system: OVCAR-5
[35] = test system: OVCAR-8
[36] = test system: PC-3
[37] = test system: RPMI-8226
[38] = test system: RXF 393
[39] = test system: SF-268
[40] = test system: SF-295
[41] = test system: SF-539
[42] = test system: SK-MEL-28
[43] = test system: SK-MEL-2
[44] = test system: SK-MEL-5
[45] = test system: SK-OV-3
[46] = test system: SN12C
[47] = test system: SNB-19
[48] = test system: SNB-75
[49] = test system: SW-620
[50] = test system: T47D
[51] = test system: TK-10
[52] = test system: U-251
[53] = test system: UACC-257
[54] = test system: UACC-62
[55] = test system: UO-31

Measured: GI50

CCOC(=O)C(C)c1nc2cc(F)c(F)cc2[nH]c1=O (stereo not given)
> 100 µM: [12]
inactive: [1] > 100 µM | [2] > 100 µM | [3] > 100 µM | [4] > 100 µM | [5] > 100 µM | [6] > 100 µM | [7] > 100 µM | [8] > 100 µM | [9] > 100 µM | [10] > 100 µM | [11] > 100 µM | [13] > 100 µM | [14] > 100 µM | [15] > 100 µM | [16] > 100 µM | [17] > 100 µM | [18] > 100 µM | [19] > 100 µM | [20] > 100 µM | [21] > 100 µM | [22] > 100 µM | [23] > 100 µM | [24] > 100 µM | [25] > 100 µM | [26] > 100 µM | [27] > 100 µM | [28] > 100 µM | [29] > 100 µM | [30] > 100 µM | [31] > 100 µM | [32] > 100 µM | [33] > 100 µM | [34] > 100 µM | [35] > 100 µM | [36] > 100 µM | [37] > 100 µM | [38] > 100 µM | [39] > 100 µM | [40] > 100 µM | [41] > 100 µM | [42] > 100 µM | [43] > 100 µM | [44] > 100 µM | [45] > 100 µM | [46] > 100 µM | [47] > 100 µM | [48] > 100 µM | [49] > 100 µM | [50] 22.9 µM | [51] > 100 µM | [52] > 100 µM | [53] > 100 µM | [54] > 100 µM | [55] > 100 µM
